Measurements: patent US4626535A, “Cephalosporins” (Bayer Aktiengesellschaft, priority 1983, dated 1986)
≈ marks a conversion by molar mass, not a printed value.

Legend:
Assay in all cases: in vitro MIC comparison in Isosensitest agar
Format in all cases: cell-based
Staph. 1756 = details: Staphylococcus
Source text: (§1) The compound of Example 21 was compared in vitro with Cefotaxim (MIC-comparison in Isosensitest agar): […]

Staph. E = details: Staphylococcus
Source text: as §1

[1] = system: Enterobacter Cloacae 56US; details: CLOACAE56US
Source text: as §1

Psdm. 7035 = details: Pseudomonas
Source text: as §1

Psdm. Walter = details: Pseudomonas
Source text: as §1

Staph. 133 = details: Staphylococcus
Source text: as §1

Staph. 25470 = details: Staphylococcus
Source text: as §1

Row | SMILES | MIC (Staph. 1756) | MIC (Staph. E) | MIC [1] | MIC (Psdm. 7035) | MIC (Psdm. Walter) | MIC (Staph. 133) | MIC (Staph. 25470)
1 | CO/N=C(\C(=O)N[C@@H]1C(=O)N2C(C(=O)O)=C(COC(C)=O)CS[C@H]12)c1csc(N)n1 [Cefotaxim] | 128 µg/mL (≈ 281 µM) | 0.5 µg/mL (≈ 1.1 µM) | > 128 µg/mL | 16 µg/mL (≈ 35.1 µM) | 16 µg/mL (≈ 35.1 µM) | 1 µg/mL (≈ 2.2 µM) | > 128 µg/mL
2 | C/C=C(\C(=O)NC1C(=O)N2C(C(=O)[O-])=C(C[n+]3ccccc3)CSC12)c1nsc(N)n1 (centres unmarked) [Example 21, 7-(1-(5-Amino-1,2,4-thiadiazol-3-yl)-1(Z)-propenecarboxamido)-3-pyridiniummethyl-3-cephem-4-carboxylate] | 8 µg/mL (≈ 17.4 µM) | 0.125 µg/mL (≈ 0.273 µM) | 64 µg/mL (≈ 140 µM) | 8 µg/mL (≈ 17.4 µM) | 8 to 16 µg/mL (≈ 17.4 to 34.9 µM) | 0.5 µg/mL (≈ 1.09 µM) | 8 µg/mL (≈ 17.4 µM)
